Tests used:
SD rats [1] = assay: U46619-induced rat acute pulmonary arterial pressure rise model, airway nebulized administration (RVSP); type: in vivo
From the text: U46619 was a stable analogue of thromboxane A2 (TXA2), which activated the downstream IP3 signal by binding to the thromboxane A2 receptor to promote vasoconstriction, platelet aggregation and the like. Influences of compound C16-TR and equimolar compounds Ia-1, Ia-2, Ia-3, R-11 and R-12 at different time points after airway nebulized administration on pulmonary hypertension of rats were studied by using the U46619-induced rat pulmonary arterial pressure rise mode, which were compared with that of equimolar TRE after airway nebulized administration.
Preparation of test sample: a required amount of compound TRE was taken and added into a sterile EP tube, and each tube was added with an appropriate amount of DMSO for dissolution to prepare a stock solution (100 mg/mL). Compounds C16-TR, la-1, la-2, Ia-3, R-11 and R-12 were added with appropriate amounts of DMSO and dissolved in the original bottles to prepare stock solutions (100 mg/mL), and then the stock solutions were transferred to sterile EP tubes. Each above stock solution was hermetically stored in the dark in a refrigerator at 4°C. When the stock solution was tested, an appropriate amount of stock solution was taken and added into a new sterile EP tube, and diluted with DMSO and 1×PBS to a target concentration (working solution) wherein the solvent was 3% DMSO/1×PBS.
Preparation of modeling agent: 900 µL of methyl acetate was added into an original bottle of U46619 and mixed evenly to prepare 1 mg/mL(1 µg/µL) stock solution, which was divided into 10 µL (1 µg/µL) per sterile EP tube and stored in a refrigerator at -20°C. On the day of modeling, the stock solution was taken out and balanced at room temperature and constant temperature, and each tube was added with an appropriate amount of 0.9% sodium chloride solution (sterile) to be diluted 20-fold, so as to prepare a working solution with a concentration of 50 ng/µL.
Airway nebulized administration dosages of compound TRE and the test compounds were equimolar quantities calculated based on TRE. The dosage of compound TRE group (n=3) was 13.3 µg/kg, the dosage of compound C16-TR group (n=5) was 20.9 µg/kg, the dosage of compound Ia-1 group (n=3) was 21.2 µg/kg, the dosage of compound Ia-2 group (n=6) was 22.1 µg/kg, the dosage of compound Ia-3 group (n=6) was 23.1 µg/kg, the dosage of compound R-11 group (n=3) was 21.9 µg/kg, and the dosage of compound R-12 group (n=3) was 21.7 µg/kg. There were also a model control group (n=1) and a solvent control group (n=3).
The SD rats were injected with U46619 (25 µg /kg) through the left jugular vein at different time points after airway nebulized administration, the peak value of RVSP rise after injection with U46619 was observed and recorded, and the inhibition percentage on the RVSP rise was calculated by comparing with the basic RVSP value. The rats in the model control group were administered with U46619 by intravenous injection immediately after successful catheterization and measurement of the basic RVSP. RVSP of all animals were detected by right cardiac catheterization, and respiratory conditions of the animals were observed generally. Table-2 Time points of administrating U46619 in various groups

EP2 receptor = target: T1, EP2 receptor (Homo sapiens, UniProt P43116); assay: Competitive binding to EP2 receptor against radiolabeled ligand 3H-PGE2; conditions: 8 concentrations from 10 µM, 10-fold dilutions
T1 construct: purchased Merck HTS185M
T1 sequence (P43116 whole entry): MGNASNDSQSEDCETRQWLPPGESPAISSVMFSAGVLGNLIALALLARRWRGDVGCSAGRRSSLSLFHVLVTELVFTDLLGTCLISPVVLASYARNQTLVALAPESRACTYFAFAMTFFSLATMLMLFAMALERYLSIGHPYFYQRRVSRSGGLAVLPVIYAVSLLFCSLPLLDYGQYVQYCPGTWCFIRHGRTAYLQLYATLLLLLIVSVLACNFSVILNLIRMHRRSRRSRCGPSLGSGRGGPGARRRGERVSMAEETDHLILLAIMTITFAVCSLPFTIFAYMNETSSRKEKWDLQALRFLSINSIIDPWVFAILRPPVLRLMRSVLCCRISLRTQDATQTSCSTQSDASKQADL
Method: This experiment was carried out in 96-well plates to evaluate the binding affinity of the compounds of the present invention (Ia-1, Ia-2 and Ia-3) to the prostaglandin EP2 receptor by testing their ability of competitive binding to the EP2 receptor with the radiolabeled ligand ^3H-PGE2. Treprostinil was used as control. MicroBeta2 was used to detect the number of ^3H captured, and Prism software was used to analyze data. The EP2 film (Merck, Cat# HT[…], batch number 2121326) was diluted with a buffer (50 mM Hepes, PH=7.4, 5 mM MgCl2, 1 mM CaCl2, 0.5% BSA) to a final concentration of 75 μg/mL. ^3H-PGE2 was diluted to 15 nM. Test compound and control compound solutions with an initial concentration of 10 μM were prepared, and subjected to 10-fold continuous gradient dilution, with a total of 8 concentrations for testing. 5%DMSO was used as a solvent control group. 1 μL of each compound solution was added into a corresponding position in the 96-well test plate, and each well was added with 50 μL of the EP2 film (about 3.75 μg/well), and added with 50 μ L of ^3H-PGE2. Then, the well plate was sealed, and incubated with shaking at 300 rpm at room temperature for 2 hours. After finishing the incubation, GF/C plates were filtered with Perkin Elmer Filtermate Harvester, and then each plate was washed with cold eluent for 4 times, and dried at 50°C for 1 hour. After drying, bottoms of wells of the filter plate were sealed with a PerkinElmer Unifilter-96 backing tape. 50 μL of Perkin Elmer Microscint O was added. The top of the filter plate was sealed with Perkin Elmer TopSeal-A sealing film. The number of ^3H captured was detected by MicroBeta2.

SD rats [2] = assay: U46619-induced rat acute pulmonary arterial pressure rise model, low-dose airway nebulized administration (RVSP); type: in vivo; conditions: 1 hour after low-dose airway nebulized administration (about 3 µg/kg, equimolar)
From the text: In this experiment, airway nebulized administration dosages of the compounds were about 1/7 of airway nebulized administration dosages in Experimental Example 5. By using a U46619-induced rat acute pulmonary arterial pressure rise model, antihypertensive effects of the compounds of the present invention after airway nebulized administration were further verified by reducing the administration dosages.
A model construction method was the same as that described in Experimental Example 5. In this experiment, dosages of groups were as follows: the dosage of compound C16-TR group was 3 µg/kg, and the dosages of equimolar compounds Ia-1, Ia-2 and Ia-3 were 3.0 µg/kg, 3.2 µg/kg and 3.3 µg/kg respectively.
The SD rats were anesthetized and then administered by airway nebulization, and then the basic right ventricular systolic pressure (RVSP) was measured by right cardiac catheterization. The SD rats were intravenously injected with U46619 (25 µg /kg) at 1 hour after airway nebulized administration of each compound, a peak value of RVSP rise after injection with U46619 was observed and recorded, and the inhibition percentage on the RVSP rise was calculated by comparing with the basic RVSP value. The number of experimental animals in each group was 1~2.

With `CCCCC[C@H](O)CC[C@@H]1[C@H]2Cc3cccc(OCC(=O)OCCCCCCCCOCCCCc4ccccc4)c3C[C@H]2C[C@H]1O` [Compound Ia-2] the “antihypertensive effect and duration, overall” value (SD rats [1]; 1 to 48 hours after airway nebulized administration, equimolar doses) was “stronger antihypertensive effects than C16-TR and longer durations”, the antihypertensive effect (SD rats [1]; 24 hours after airway nebulized administration, equimolar to 13.3 µg/kg TRE) was “obvious antihypertensive effects” and the antihypertensive effect (SD rats [1]; 48 hours after airway nebulized administration) was “absence of an antihypertensive effect”. The “binding to the EP2 receptor (competition with 3H-PGE2)” value (EP2 receptor) was “no detectable binding” and the “Inhibition percentage on RVSP rise (%) (mean)” value (SD rats [2]) was 65.78%.

Reference: patent EP4741374A1, “TREPROSTINIL DERIVATIVE, AND PREPARATION METHOD THEREFOR AND USE THEREOF” (CF PharmTech HongKong Limited, priority 2023, dated 2025)
